Results: US20030036111A1, “Mitochondrial protein” (priority 2001, published 2003)
Entries after “also recorded” stand apart in the source; their conditions may differ.

Key:
Type in all cases: biochemical
[1] = molecular target: T1, human DNC (mitochondrial deoxynucleotide carrier) (Homo sapiens, UniProt Q9HC21); test: Inhibition of [α-35S]dATP uptake (dATP/ADP exchange) by external substrates and carrier inhibitors; conditions: for Ki: read-out: Ki, competitive inhibition of [α-35 S]dATP uptake by external substrate; for Ki, competitive inhibition of [α-35 S]dATP uptake by external substrate: internal ADP or dADP 10 mM
T1 construct: Amino acids are numbered from 1-320; made in house; host or cells: E. coli BL21(DE3), pET21b; inclusion bodies solubilized in sarkosyl, Ni-NTA purified
T1 sequence (Q9HC21 2-320 limits assumed): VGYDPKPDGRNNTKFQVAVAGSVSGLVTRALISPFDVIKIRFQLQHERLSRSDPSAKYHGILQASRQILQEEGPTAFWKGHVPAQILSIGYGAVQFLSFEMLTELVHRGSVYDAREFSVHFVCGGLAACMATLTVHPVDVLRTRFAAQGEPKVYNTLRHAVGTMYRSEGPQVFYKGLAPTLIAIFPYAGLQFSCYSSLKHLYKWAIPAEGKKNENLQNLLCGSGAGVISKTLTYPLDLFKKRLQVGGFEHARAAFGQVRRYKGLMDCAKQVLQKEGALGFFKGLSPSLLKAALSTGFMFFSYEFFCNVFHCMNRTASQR

[2] = molecular target: T1, human DNC (mitochondrial deoxynucleotide carrier); test: Dependence of DNC activity ([α-35S]dATP uptake) on internal substrate; conditions: internal substrate 10 mM; for rate of [α-35 S]dATP uptake into proteoliposomes with internal substrate: 2 min
Method: FIG. 3. Time course of dATP/ADP exchange and substrate specificity of human DNC. (a) Time course of [α-35 S]dATP/ADP exchange in proteoliposomes reconstituted with the recombinant DNC. [α-35 S]dATP (1 mM) was added to proteoliposomes containing 10 mM ADP (⋄) or 10 mM NaCl (∇). (b) Dependence of DNC activity on internal substrate. Proteoliposomes were preloaded internally with various substrates (concentration 10 mM). Trans-port was started by addition of […] [α-35 S]dATP and stopped after 2 min. The values are means 6 SD of at least three experiments. (c) Inhibition of the rate of [α-35 S]dATP uptake by external substrates. Proteoliposomes were preloaded internally with 10 mM ADP. […] External substrates (concentration 0.5 mM) were added together with [α-35 S]dATP. The extents of inhibition (%) from a representative experiment are reported.
(§1) The recombinant protein in sarkosyl was reconstituted into liposomes in the presence of substrates (10). […] Transport was measured at 25° C. with internal and external pHs at 6.8. It was started by adding [α-35S]dATP or [^14C]-ADP and terminated after 2 min by addition of 100 mM of p-chloromercuribenzene sulfonate (10). Entrapped radioactivity was counted (10). The initial transport rate was calculated from the radioactivity taken up by proteoliposomes within 2 min (in the initial linear range). Other transport activities were assayed similarly (10).

[3] = molecular target: T1, human DNC (mitochondrial deoxynucleotide carrier); test: Inhibition of [α-35S]dATP uptake (dATP/ADP exchange) by external substrates and carrier inhibitors; conditions: external substrates 0.5 mM; internal 10 mM ADP; 125 mM [α-35 S]dATP; 2 min
Method: FIG. 3. Time course of dATP/ADP exchange and substrate specificity of human DNC. (a) Time course of [α-35 S]dATP/ADP exchange in proteoliposomes reconstituted with the recombinant DNC. [α-35 S]dATP (1 mM) was added to proteoliposomes containing 10 mM ADP (⋄) or 10 mM NaCl (∇). (b) Dependence of DNC activity on internal substrate. Proteoliposomes were preloaded internally with various substrates (concentration 10 mM). Trans-port was started by addition of […] [α-35 S]dATP and stopped after 2 min. The values are means 6 SD of at least three experiments. (c) Inhibition of the rate of [α-35 S]dATP uptake by external substrates. Proteoliposomes were preloaded internally with 10 mM ADP. Transport was started by adding […] [α-35 S]dATP and stopped after 2 min. External substrates (concentration 0.5 mM) were added together with [α-35 S]dATP. The extents of inhibition (%) from a representative experiment are reported.
The recombinant protein in sarkosyl was reconstituted into liposomes in the presence of substrates (10). Both cardiolipin (1.14 mg/ml) and EDTA (1 mM) were added. Transport was measured at 25° C. with internal and external pHs at 6.8. It was started by adding [α-35S]dATP or [^14C]-ADP and terminated after 2 min by addition of 100 mM of p-chloromercuribenzene sulfonate (10). Entrapped radioactivity was counted (10). The initial transport rate was calculated from the radioactivity taken up by proteoliposomes within 2 min (in the initial linear range). Other transport activities were assayed similarly (10).

[4] = molecular target: T1, human DNC (mitochondrial deoxynucleotide carrier); test: Homo-exchange of other carrier substrates in DNC proteoliposomes; conditions: internal concentration 10 mM; external concentration 1 mM
Method: as §1

[5] = inhibitor 0.1 mM, internal 10 mM ADP, 2 min
[6] = inhibitor 2 mM, internal 10 mM ADP, 2 min
[7] = inhibitor 10 mM, internal 10 mM ADP, 2 min

| Molecule | rate of [α-35 S]dATP uptake into proteoliposomes with internal substrate [2] | effect of external substrate on [α-35 S]dATP/ADP exchange [3] | also measured |
| --- | --- | --- | --- |
| O=S(=O)([O-])c1cc[c]([Hg][Cl])cc1 [p-chloromercuribenzene sulfonate] |  |  | inhibition of uptake of [α-35 S]dATP [1, 5]: completely |
| CO[C@H](C/C=C\C=C\CC/C=C/C[C@H](C)/C=C/C(=C\C(=O)O)CC(=O)O)/C(C)=C\C=C(/C)C(=O)O [bongkrekate] |  |  | inhibition of uptake of [α-35 S]dATP ([1]; inhibitor 0.01 mM, internal 10 mM ADP, 2 min): 37% |
| O=C(O)CC(O)C(=O)O (stereo not shown) [malate] |  |  | homo-exchange catalysed by reconstituted DNC [4]: did not catalyse |
| Nc1ncnc2c1ncn2[C@@H]1O[C@H](CO)[C@@H](O)[C@H]1O [adenosine] | virtually no activity | no effect |  |
| Nc1nc2nc[nH]c2c(=O)[nH]1 [guanine] | virtually no activity | no effect |  |
| Nc1ccn([C@H]2CC[C@@H](COP(=O)(O)OP(=O)(O)OP(=O)(O)O)O2)c(=O)n1 [ddCTP] |  |  | Ki [1]: 70 µM |
| O=C(O)CC(C(=O)O)c1ccccc1 (stereo not shown) [phenylsuccinate] |  |  | inhibition of uptake of [α-35 S]dATP [1, 6]: No significant inhibition |
| Nc1ncnc2c1ncn2[C@H]1CC[C@@H](COP(=O)(O)OP(=O)(O)OP(=O)(O)O)O1 [ddATP] |  |  | Ki [1]: 25 µM |
| dADP | highest rates |  |  |
| Nc1ccn([C@@H]2O[C@H](CO)[C@@H](O)[C@H]2O)c(=O)n1 [cytidine] | virtually no activity | no effect |  |
| CCN1C(=O)C=CC1=O [N-ethylmaleimide] |  |  | inhibition of uptake of [α-35 S]dATP [1, 6]: No significant inhibition |
| Nc1nc2c(ncn2[C@@H]2O[C@H](COP(=O)(O)OP(=O)(O)O)[C@@H](O)[C@H]2O)c(=O)[nH]1 [GDP] | significant activities; also recorded: rather poorly |  |  |
| C=C1[C@@H]2CC[C@H]3[C@]4(C)C[C@H](O[C@@H]5O[C@H](CO)[C@@H](OS(=O)(=O)O)[C@H](OS(=O)(=O)O)[C@H]5OC(=O)CC(C)C)CC(C(=O)O)(C(=O)O)[C@H]4CC[C@]3(C2)[C@H]1O [carboxyatractyloside] |  |  | inhibition of uptake of [α-35 S]dATP [1, 5]: 42% |
| O=c1ccn([C@@H]2O[C@H](COP(=O)(O)OP(=O)(O)O)[C@@H](O)[C@H]2O)c(=O)[nH]1 [UDP] | significant activities |  |  |
| O=c1ccn([C@H]2C[C@H](O)[C@@H](COP(=O)(O)OP(=O)(O)OP(=O)(O)O)O2)c(=O)[nH]1 [dUTP] |  |  | Ki, competitive inhibition of [α-35 S]dATP uptake by external substrate [1]: higher |
| CCCCC(C(=O)O)C(=O)O [butylmalonate] |  |  | inhibition of uptake of [α-35 S]dATP [1, 6]: No significant inhibition |
| O=C(O)c1cccc(C(=O)O)c1C(=O)O [1,2,3-benzenetricarboxylate] |  |  | dATP/ADP exchange rate reduced to (remaining rate) [1, 6]: 40% |
| Nc1nc2c(ncn2[C@@H]2O[C@H](CO)[C@@H](O)[C@H]2O)c(=O)[nH]1 [guanosine] | virtually no activity | no effect |  |
| c1ccc(-c2ccnc3c2ccc2c(-c4ccccc4)ccnc23)cc1 [bathophenathroline] |  |  | inhibition of uptake of [α-35 S]dATP [1, 7]: 41% |
| O=c1cc[nH]c(=O)[nH]1 [uracil] | virtually no activity | no effect |  |
| Cc1ncc(COP(=O)(O)O)c(C=O)c1O [pyridoxal 5′-phosphate] |  |  | inhibition of uptake of [α-35 S]dATP [1, 7]: completely |
| O=c1ccn([C@@H]2O[C@H](CO)[C@@H](O)[C@H]2O)c(=O)[nH]1 [uridine] | virtually no activity | no effect |  |
| O=c1ccn([C@H]2C[C@H](O)[C@@H](COP(=O)(O)OP(=O)(O)O)O2)c(=O)[nH]1 [dUDP] |  |  | Ki, competitive inhibition of [α-35 S]dATP uptake by external substrate [1]: higher |
| C=C1[C@@H](C)[C@H]2[C@H](Cc3ccccc3)NC(=O)[C@]23OC(=O)/C=C/[C@H](O)CCC[C@@H](C)C/C=C/[C@H]3[C@@H]1O [cytochalasin B] |  |  | inhibition of uptake of [α-35 S]dATP ([1]; inhibitor 0.033 mM, internal 10 mM ADP, 2 min): No significant inhibition |
| N#CC(=Cc1ccc(O)cc1)C(=O)O [a-cyano-4-hydroxycinnamate] |  |  | inhibition of uptake of [α-35 S]dATP [1, 6]: No significant inhibition |
| O=P(O)(O)OP(=O)(O)O [pyrophosphate] | much lower activities |  | exchange relative to ADP exchange ([2]; [α-35 S]dATP uptake): 22% |

Second part, led by results:

| rate of [α-35 S]dATP uptake into proteoliposomes with internal substrate [2] | effect of external substrate on [α-35 S]dATP/ADP exchange [3] | Molecule | also measured |
| --- | --- | --- | --- |
| virtually no activity | no effect | Cc1cn([C@H]2C[C@H](O)[C@@H](CO)O2)c(=O)[nH]c1=O [deoxythymidine] |  |
| virtually no activity |  | NCC(=O)O [glycine] |  |
| lower rate |  | Nc1ncnc2c1ncn2[C@@H]1O[C@H](COP(=O)(O)OP(=O)(O)OP(=O)(O)O)[C@@H](O)[C@H]1O [ATP] |  |
| virtually no activity | no effect | Cc1c[nH]c(=O)[nH]c1=O [thymine] |  |
| virtually no activity | no effect | Nc1ncnc2c1ncn2[C@H]1C[C@H](O)[C@@H](CO)O1 [deoxyadenosine] |  |
| virtually no activity |  | NC(=O)C1=CN([C@@H]2O[C@H](COP(=O)(O)OP(=O)(O)OC[C@H]3O[C@@H](n4cnc5c(N)ncnc54)[C@H](O)[C@@H]3O)[C@@H](O)[C@H]2O)C=CC1 [NADH] |  |
| virtually no activity |  | O=C(O)CC(O)(CC(=O)O)C(=O)O [citrate] |  |
| virtually no activity | no effect | Nc1ccn([C@H]2C[C@H](O)[C@@H](CO)O2)c(=O)n1 [deoxycytidine] |  |
| significant activities |  | Nc1ccn([C@@H]2O[C@H](COP(=O)(O)OP(=O)(O)O)[C@@H](O)[C@H]2O)c(=O)n1 [CDP] |  |
| virtually no activity | no effect | Nc1ncnc2nc[nH]c12 [adenine] |  |
| virtually no activity | no effect | O=c1ccn([C@H]2C[C@H](O)[C@@H](CO)O2)c(=O)[nH]1 [deoxyuridine] |  |
| virtually no activity | no effect | Nc1cc[nH]c(=O)n1 [cytosine] |  |
| virtually no activity |  | phosphate |  |
| virtually no activity | no effect | Nc1nc2c(ncn2[C@H]2C[C@H](O)[C@@H](CO)O2)c(=O)[nH]1 [deoxyguanosine] |  |
